Legend:
[1] = Cmax in healthy man plasma at 500 mg, iv administered as 1 hr infusion by LC-MS/MS analysis; type: ADME, organism-based; design: dose 500 mg, route intravenous; settings: male, human
[2] = Tmax in healthy man plasma at 500 mg, iv administered as 1 hr infusion by LC-MS/MS analysis; type: ADME, organism-based; settings: male, human
[3] = AUC (last) in healthy man plasma at 500 mg, iv administered as 1 hr infusion by LC-MS/MS analysis; type: ADME, organism-based; design: dose 500 mg, time 0 - last, route intravenous; settings: male, human
[4] = AUC (0 to infinity) in healthy man plasma at 500 mg, iv administered as 1 hr infusion by LC-MS/MS analysis; type: ADME, organism-based; design: dose 500 mg, time infinity, route intravenous; settings: male, human
[5] = Half life in healthy man plasma at 500 mg, iv administered as 1 hr infusion by LC-MS/MS analysis; type: ADME, organism-based; settings: male, human
[6] = Clearance in healthy man plasma at 500 mg, iv administered as 1 hr infusion by LC-MS/MS analysis; type: ADME, organism-based; settings: male, human
[7] = Cmax in healthy man plasma assessed as doripenem-M-1 at 500 mg, iv administered as 1 hr infusion by LC-MS/MS analysis; type: ADME, organism-based; design: dose 500 mg, route intravenous; settings: human, in vivo
[8] = Tmax in healthy man plasma assessed as doripenem-M-1 at 500 mg, iv administered as 1 hr infusion by LC-MS/MS analysis; type: ADME, organism-based; settings: human, in vivo
[9] = AUC (last) in healthy man plasma assessed as doripenem-M-1 at 500 mg, iv administered as 1 hr infusion by LC-MS/MS analysis; type: ADME, organism-based; design: dose 500 mg, time 0 - last, route intravenous; settings: human, in vivo
[10] = AUC (0 to infinity) in healthy man plasma assessed as doripenem-M-1 at 500 mg, iv administered as 1 hr infusion by LC-MS/MS analysis; type: ADME, organism-based; design: dose 500 mg, time infinity, route intravenous; settings: human, in vivo
[11] = Half life in healthy man plasma assessed as doripenem-M-1 at 500 mg, iv administered as 1 hr infusion by LC-MS/MS analysis; type: ADME, organism-based; settings: human, in vivo
[12] = Cmax in healthy man plasma assessed as total compound-derived radioactivity at 500 mg, iv administered as 1 hr infusion by Liquid scintillation counting; type: ADME, organism-based; design: dose 500 mg, route intravenous; settings: human, in vivo
[13] = Tmax in healthy man plasma assessed as total compound-derived radioactivity at 500 mg, iv administered as 1 hr infusion by Liquid scintillation counting; type: ADME, organism-based; settings: human, in vivo
[14] = AUC (last) in healthy man plasma assessed as total compound-derived radioactivity at 500 mg, iv administered as 1 hr infusion by Liquid scintillation counting; type: ADME, organism-based; design: dose 500 mg, time 0 - last, route intravenous; settings: human, in vivo
[15] = AUC (0 to infinity) in healthy man plasma assessed as total compound-derived radioactivity at 500 mg, iv administered as 1 hr infusion by Liquid scintillation counting; type: ADME, organism-based; design: dose 500 mg, route intravenous, time infinity; settings: human, in vivo
[16] = Half life in healthy man plasma assessed as total compound-derived radioactivity at 500 mg, iv administered as 1 hr infusion by Liquid scintillation counting; type: ADME, organism-based; settings: human, in vivo
[17] = Cmax in healthy man whole blood assessed as total compound-derived radioactivity at 500 mg, iv administered as 1 hr infusion by Liquid scintillation counting; type: ADME, organism-based; design: dose 500 mg, route intravenous; settings: human, in vivo
[18] = Tmax in healthy man whole blood assessed as total compound-derived radioactivity at 500 mg, iv administered as 1 hr infusion by Liquid scintillation counting; type: ADME, organism-based; settings: human, in vivo
[19] = AUC (last) in healthy man whole blood assessed as total compound-derived radioactivity at 500 mg, iv administered as 1 hr infusion by Liquid scintillation counting; type: ADME, organism-based; design: dose 500 mg, time 0 - last, route intravenous; settings: human, in vivo
[20] = Drug excretion in healthy man urine at 500 mg, iv administered as 1 hr infusion measured after 4 hrs by Liquid scintillation counting; type: ADME, organism-based; settings: human, in vivo
[21] = Drug excretion in healthy man urine at 500 mg, iv administered as 1 hr infusion measured after 4 to 8 hrs by Liquid scintillation counting; type: ADME, organism-based; settings: human, in vivo
[22] = Drug excretion in healthy man urine at 500 mg, iv administered as 1 hr infusion measured after 8 to 12 hrs by Liquid scintillation counting; type: ADME, organism-based; settings: human, in vivo
[23] = Drug excretion in healthy man urine at 500 mg, iv administered as 1 hr infusion measured after 12 to 24 hrs by Liquid scintillation counting; type: ADME, organism-based; settings: human, in vivo
[24] = Drug excretion in healthy man urine at 500 mg, iv administered as 1 hr infusion measured after 0 to 12 hrs by Liquid scintillation counting; type: ADME, organism-based; settings: human, in vivo
[25] = Drug excretion in healthy man urine at 500 mg, iv administered as 1 hr infusion measured after 7 days by Liquid scintillation counting; type: ADME, organism-based; settings: human, in vivo
[26] = Drug excretion in healthy man feces at 500 mg, iv administered as 1 hr infusion measured after 7 days by Liquid scintillation counting; type: ADME, organism-based; settings: human, in vivo
[27] = Elimination rate constant in plasma of healthy man dosed at 500 mg, iv administered as 1 hr infusion; type: ADME, organism-based; settings: male, human
[28] = Elimination rate constant in plasma of healthy man assessed as doripenem-M-1, dosed at 500 mg, iv administered as 1 hr infusion; type: ADME, organism-based; settings: human, in vivo
[29] = Elimination rate constant in plasma of healthy man assessed as total compound-derived radioactivity, dosed at 500 mg, iv administered as 1 hr infusion; type: ADME, organism-based; settings: human, in vivo
[30] = Renal clearance in healthy man dosed at 500 mg, iv administered as 1 hr infusion; type: ADME, organism-based, Kidney; settings: male, human, in vivo
[31] = Renal clearance in healthy man assessed as doripenem-M-1, dosed at 500 mg, iv administered as 1 hr infusion; type: ADME, organism-based, Kidney; settings: human, in vivo

SMILES: C[C@@H](O)[C@H]1C(=O)N2[C@@H]1[C@@H](C)C(S[C@@H]1CN[C@H](CNS(N)(=O)=O)C1)=[14C]2C(=O)O [[14C]-DORIPENEM]
- Cmax [1]: 22900 ng/mL
- Tmax [2]: 1.02 h
- AUC(0-t) at 1 h [3]: 31500 ng·h/mL
- AUC(0-inf) [4]: 31800 ng·h/mL
- half-life [5]: 1.07 h
- clearance [6]: 267 mL/min
- Cmax [7]: 1560 ng/mL
- Tmax [8]: 1.01 h
- AUC [9]: 4030 ng·h/mL
- AUC [10]: 4980 ng·h/mL
- t1/2 [11]: 2.54 h
- Cmax [12]: 22100 ng/mL
- Tmax [13]: 1.02 h
- AUC [14]: 37500 ng·h/mL
- AUC [15]: 39500 ng·h/mL
- t1/2 [16]: 1.59 h
- Cmax [17]: 13200 ng/mL
- Tmax [18]: 1.02 h
- AUC [19]: 20200 ng·h/mL
- Drug uptake [20]: 85.13%
- Drug uptake [21]: 6.69%
- Drug uptake [22]: 1.62%
- Drug uptake [23]: 0.9%
- Drug uptake [24]: 93.44%
- Drug uptake [25]: 95.28%
- Drug uptake [26]: 0.72%
- k el at 1 h [27]: 0.000183 s⁻¹
- kel [28]: 0.275 h⁻¹
- kel [29]: 0.438 h⁻¹
- CL renal at 1 h [30]: 208 mL/min
- CLr [31]: 18.9 L/h

From ChEMBL document CHEMBL1275498, “Disposition, metabolism, and excretion of [14C]doripenem after a single 500-milligram intravenous infusion in healthy men” (Antimicrob Agents Chemother, 2008)
